According to patent publication US20240376121A1, “COMPOUNDS AND USES THEREOF” (Foghorn Therapeutics Inc., priority 2021, published 2024):

Columns and labels:
HiBit-BRM fusion protein = molecular target: T1, HiBit-BRM fusion protein (Homo sapiens, UniProt P51531); test: HiBiT-BRM cell-based degradation assay (Nano-Glo HiBiT Lytic Detection); conditions: stable HeLa cell line expressing HiBiT-BRM, 24 h incubation; for BRM HiBit Degradation Maximum (%): top dose 30 μM; for DC50: read-out: BRM HiBit Degradation IC50
T1 construct: expressed in transfected cells
T1 sequence (P51531 whole entry, the tested form may be a part): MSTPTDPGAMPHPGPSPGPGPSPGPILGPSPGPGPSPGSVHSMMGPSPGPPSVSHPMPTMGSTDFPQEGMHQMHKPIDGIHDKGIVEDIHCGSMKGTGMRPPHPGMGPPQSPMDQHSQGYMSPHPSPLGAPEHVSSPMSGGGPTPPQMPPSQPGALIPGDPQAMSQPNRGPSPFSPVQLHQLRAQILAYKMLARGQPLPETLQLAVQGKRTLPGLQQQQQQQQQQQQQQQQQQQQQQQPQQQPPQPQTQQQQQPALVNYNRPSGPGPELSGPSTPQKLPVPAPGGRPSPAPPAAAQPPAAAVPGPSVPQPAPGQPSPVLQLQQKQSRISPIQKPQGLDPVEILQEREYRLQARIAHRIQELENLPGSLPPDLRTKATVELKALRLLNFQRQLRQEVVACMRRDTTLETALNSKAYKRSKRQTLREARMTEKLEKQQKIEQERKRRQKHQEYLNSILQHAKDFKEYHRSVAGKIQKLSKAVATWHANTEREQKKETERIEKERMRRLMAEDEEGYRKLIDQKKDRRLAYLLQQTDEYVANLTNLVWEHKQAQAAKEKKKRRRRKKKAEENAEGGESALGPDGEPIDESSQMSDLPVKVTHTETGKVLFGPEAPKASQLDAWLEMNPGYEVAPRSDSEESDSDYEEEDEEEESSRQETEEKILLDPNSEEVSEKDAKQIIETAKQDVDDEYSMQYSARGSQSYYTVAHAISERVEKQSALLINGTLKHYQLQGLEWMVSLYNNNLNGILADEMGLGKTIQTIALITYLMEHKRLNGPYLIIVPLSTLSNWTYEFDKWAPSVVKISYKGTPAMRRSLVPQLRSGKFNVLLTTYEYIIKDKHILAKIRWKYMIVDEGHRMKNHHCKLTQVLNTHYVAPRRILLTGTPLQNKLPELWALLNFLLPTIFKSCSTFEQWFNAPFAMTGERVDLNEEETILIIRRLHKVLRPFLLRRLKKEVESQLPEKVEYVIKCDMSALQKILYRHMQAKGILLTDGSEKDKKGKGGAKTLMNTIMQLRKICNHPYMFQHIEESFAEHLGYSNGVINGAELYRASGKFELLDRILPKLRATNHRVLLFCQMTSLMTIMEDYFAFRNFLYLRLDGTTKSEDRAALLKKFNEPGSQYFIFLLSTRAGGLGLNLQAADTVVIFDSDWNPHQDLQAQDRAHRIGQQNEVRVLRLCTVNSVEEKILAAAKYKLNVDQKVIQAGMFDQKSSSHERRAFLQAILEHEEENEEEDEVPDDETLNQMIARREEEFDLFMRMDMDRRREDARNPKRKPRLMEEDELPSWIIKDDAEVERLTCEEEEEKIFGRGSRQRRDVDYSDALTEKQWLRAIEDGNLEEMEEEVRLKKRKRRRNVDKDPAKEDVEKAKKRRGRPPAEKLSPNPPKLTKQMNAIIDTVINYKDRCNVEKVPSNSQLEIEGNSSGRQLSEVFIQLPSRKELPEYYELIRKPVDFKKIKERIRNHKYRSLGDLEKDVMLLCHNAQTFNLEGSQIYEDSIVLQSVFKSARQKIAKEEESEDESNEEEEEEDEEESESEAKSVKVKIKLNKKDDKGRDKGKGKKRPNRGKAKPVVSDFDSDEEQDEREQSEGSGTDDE
Procedure, shortened: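 Stable HiBiT-BRM HeLa line; 24 h compound exposure, top final 30 μM, 3-fold, 10 pts in duplicate. Lytic HiBiT/LgBiT luminescence readout. % degradation vs DMSO (0%) and 2 μM known BRM/BRG1 degrader (100%).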

[1] = molecular target: T2, HiBit-BRG1 fusion protein (Homo sapiens, UniProt P51532); test: HiBiT-BRG1 cell-based degradation assay (Nano-Glo HiBiT Lytic Detection); conditions: stable HeLa cell line expressing HiBit-BRG1 and LgBit, 24 h incubation; for Dmax: top dose 30 μM, read-out: BRG1 HiBit Degradation Maximum (%); for DC50: read-out: BRMG1 HiBit Degradation IC50
T2 construct: expressed in transfected cells
T2 sequence (P51532 whole entry, the tested form may be a part): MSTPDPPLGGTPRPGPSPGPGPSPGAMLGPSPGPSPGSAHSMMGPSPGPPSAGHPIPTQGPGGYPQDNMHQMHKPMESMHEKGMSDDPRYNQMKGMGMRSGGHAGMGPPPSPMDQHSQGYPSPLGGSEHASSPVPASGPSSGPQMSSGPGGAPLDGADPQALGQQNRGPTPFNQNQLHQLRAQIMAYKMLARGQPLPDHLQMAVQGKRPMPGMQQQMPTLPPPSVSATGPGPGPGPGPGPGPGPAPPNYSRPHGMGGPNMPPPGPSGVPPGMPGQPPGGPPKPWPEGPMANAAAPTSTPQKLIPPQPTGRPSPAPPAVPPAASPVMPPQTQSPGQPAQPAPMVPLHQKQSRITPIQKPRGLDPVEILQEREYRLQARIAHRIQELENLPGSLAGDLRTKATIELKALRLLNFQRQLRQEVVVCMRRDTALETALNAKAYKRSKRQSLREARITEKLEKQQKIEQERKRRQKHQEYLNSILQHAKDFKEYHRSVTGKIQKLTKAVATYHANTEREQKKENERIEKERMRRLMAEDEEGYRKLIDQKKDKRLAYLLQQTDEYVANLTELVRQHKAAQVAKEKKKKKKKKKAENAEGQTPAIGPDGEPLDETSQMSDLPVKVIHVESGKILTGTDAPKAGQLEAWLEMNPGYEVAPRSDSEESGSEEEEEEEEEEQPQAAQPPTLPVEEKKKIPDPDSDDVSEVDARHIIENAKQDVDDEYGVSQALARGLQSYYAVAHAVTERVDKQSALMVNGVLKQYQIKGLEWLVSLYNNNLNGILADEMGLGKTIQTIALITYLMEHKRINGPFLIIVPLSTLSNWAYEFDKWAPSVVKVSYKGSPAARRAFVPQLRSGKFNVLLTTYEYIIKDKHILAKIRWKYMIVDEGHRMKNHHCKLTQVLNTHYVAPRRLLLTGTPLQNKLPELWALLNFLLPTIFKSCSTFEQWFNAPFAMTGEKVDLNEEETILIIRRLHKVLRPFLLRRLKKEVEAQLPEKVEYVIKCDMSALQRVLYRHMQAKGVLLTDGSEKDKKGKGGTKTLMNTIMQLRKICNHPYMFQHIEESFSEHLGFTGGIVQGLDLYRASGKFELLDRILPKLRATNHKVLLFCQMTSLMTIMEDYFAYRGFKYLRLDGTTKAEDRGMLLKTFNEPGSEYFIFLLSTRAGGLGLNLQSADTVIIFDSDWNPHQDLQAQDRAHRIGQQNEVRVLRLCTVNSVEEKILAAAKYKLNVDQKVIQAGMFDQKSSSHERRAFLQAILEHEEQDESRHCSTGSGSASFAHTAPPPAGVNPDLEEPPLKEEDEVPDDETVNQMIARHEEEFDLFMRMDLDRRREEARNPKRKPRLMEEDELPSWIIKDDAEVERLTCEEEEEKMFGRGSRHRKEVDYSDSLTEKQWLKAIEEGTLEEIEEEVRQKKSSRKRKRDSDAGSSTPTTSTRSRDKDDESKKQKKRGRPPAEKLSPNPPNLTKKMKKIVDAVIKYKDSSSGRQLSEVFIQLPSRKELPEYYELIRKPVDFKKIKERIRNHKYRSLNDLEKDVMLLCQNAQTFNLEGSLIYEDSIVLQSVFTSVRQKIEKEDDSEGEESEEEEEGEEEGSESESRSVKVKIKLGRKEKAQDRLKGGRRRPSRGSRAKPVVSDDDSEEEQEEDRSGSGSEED
Procedure, shortened: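 Degradation was scored from HiBiT lytic luminescence, scaled between DMSO-treated wells and wells given 2 μM of a standard BRM/BRG1 degrader. Cells were a stable HeLa HiBiT-BRG1/LgBiT line dosed for 24 h, ten concentrations in 3-fold steps from 30 μM, in duplicate.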

| SMILES | BRM HiBit Degradation Maximum (%) (HiBit-BRM fusion protein) | DC50 (HiBit-BRM fusion protein) | Dmax [1] | DC50 [1] |
| --- | --- | --- | --- | --- |
| Cc1ncsc1-c1ccc([C@H](C)NC(=O)[C@@H]2C[C@@H](O)CN2C(=O)[C@@H](c2cc(OCCCN3CC(c4cc5nnc(-c6ccccc6O)cc5s4)C3)no2)C(C)C)cc1 [Compound 104, (2S,4R)-4-hydroxy-1-((R)-2-(3-(3-(3-(3-(2-hydroxyphenyl)thieno[3,2-c]pyridazin-6-yl)azetidin-1-yl)propoxy)isoxazol-5-yl)-3-methylbutanoyl)-N-((S)-1-(4-(4-methylthiazol-5-yl)phenyl)ethyl)pyrrolidine-2-carboxamide] | B (“B” indicates maximum degradation ≥ 50%) | ≥ 10 nM | < 50% | ≥ 1000 nM |
| Cc1ncsc1-c1ccc([C@H](C)NC(=O)[C@@H]2C[C@@H](O)CN2C(=O)[C@@H](c2cc(N3CCC(N4CC(c5cc6nnc(-c7ccccc7O)cc6s5)C4)CC3)no2)C(C)C)cc1 [Compound 105, (2S,4R)-4-hydroxy-1-((R)-2-(3-(4-(3-(3-(2-hydroxyphenyl)thieno[3,2-c]pyridazin-6-yl)azetidin-1-yl)piperidin-1-yl)isoxazol-5-yl)-3-methylbutanoyl)-N-((S)-1-(4-(4-methylthiazol-5-yl)phenyl)ethyl)pyrrolidine-2-carboxamide] | A (“A” indicates maximum degradation ≥ 75%) | < 10 nM | < 50% | ≥ 1000 nM |
| Cc1ncsc1-c1ccc([C@H](C)NC(=O)[C@@H]2C[C@@H](O)CN2C(=O)[C@@H](c2cc(OCC(=O)N3CC(c4cc5nnc(-c6ccccc6O)cc5s4)C3)no2)C(C)C)cc1 [Compound 106, (2S,4R)-4-hydroxy-1-((R)-2-(3-(2-(3-(3-(2-hydroxyphenyl)thieno[3,2-c]pyridazin-6-yl)azetidin-1-yl)-2-oxoethoxy)isoxazol-5-yl)-3-methylbutanoyl)-N-((S)-1-(4-(4-methylthiazol-5-yl)phenyl)ethyl)pyrrolidine-2-carboxamide] | C (“C” indicates maximum degradation < 50%) | ≥ 1000 nM | ≥ 50% | ≥ 1000 nM |
| Cc1ncsc1-c1ccc([C@H](C)NC(=O)[C@@H]2C[C@@H](O)CN2C(=O)[C@@H](c2cc(OCCN3CCC(N4CCC(c5sc6nnc(-c7ccccc7O)cc6c5C)CC4)CC3)no2)C(C)C)cc1 [Compound 107, (2S,4R)-4-hydroxy-1-((R)-2-(3-(2-(4-(3-(2-hydroxyphenyl)-5-methylthieno[2,3-c]pyridazin-6-yl)-[1,4′-bipiperidin]-1′-yl)ethoxy)isoxazol-5-yl)-3-methylbutanoyl)-N-((S)-1-(4-(4-methylthiazol-5-yl)phenyl)ethyl)pyrrolidine-2-carboxamide] | A (“A” indicates maximum degradation ≥ 75%) | ≥ 10 nM | < 50% | ≥ 1000 nM |
| Cc1ncsc1-c1ccc([C@H](C)NC(=O)[C@@H]2C[C@@H](O)CN2C(=O)[C@@H](c2cc(N3CCC(CN4CC(c5sc6nnc(-c7ccccc7O)cc6c5C)C4)CC3)no2)C(C)C)cc1 [Compound 108, (2S,4R)-4-hydroxy-1-((R)-2-(3-(4-((3-(3-(2-hydroxyphenyl)-5-methylthieno[2,3-c]pyridazin-6-yl)azetidin-1-yl)methyl)piperidin-1-yl)isoxazol-5-yl)-3-methylbutanoyl)-N-((S)-1-(4-(4-methylthiazol-5-yl)phenyl)ethyl)pyrrolidine-2-carboxamide] | A (“A” indicates maximum degradation ≥ 75%) | ≥ 10 nM | < 50% | ≥ 1000 nM |
| Cc1ncsc1-c1ccc([C@H](C)NC(=O)[C@@H]2C[C@@H](O)CN2C(=O)[C@@H](c2cc(OCCN3CCc4sc5nnc(-c6ccccc6O)cc5c4C3)no2)C(C)C)cc1 [Compound 109, (2S,4R)-4-hydroxy-1-((R)-2-(3-(2-(3-(2-hydroxyphenyl)-7,8-dihydropyrido[3′,4′:4,5]thieno[2,3-c]pyridazin-6(5H)-yl)ethoxy)isoxazol-5-yl)-3-methylbutanoyl)-N-((S)-1-(4-(4-methylthiazol-5-yl)phenyl)ethyl)pyrrolidine-2-carboxamide] | C (“C” indicates maximum degradation < 50%) | ≥ 1000 nM | < 50% | ≥ 1000 nM |
| Cc1ncsc1-c1ccc([C@H](C)NC(=O)[C@@H]2C[C@@H](O)CN2C(=O)[C@@H](c2cc(OCCN3CC(Cc4c(C)sc5nnc(-c6ccccc6O)cc45)C3)no2)C(C)C)cc1 [Compound 110, (2S,4R)-4-hydroxy-1-((R)-2-(3-(2-(3-((3-(2-hydroxyphenyl)-6-methylthieno[2,3-c]pyridazin-5-yl)methyl)azetidin-1-yl)ethoxy)isoxazol-5-yl)-3-methylbutanoyl)-N-((S)-1-(4-(4-methylthiazol-5-yl)phenyl)ethyl)pyrrolidine-2-carboxamide] | B (“B” indicates maximum degradation ≥ 50%) | ≥ 1000 nM | < 50% | ≥ 1000 nM |
| Cc1ncsc1-c1ccc([C@H](C)NC(=O)[C@@H]2C[C@@H](O)CN2C(=O)[C@@H](c2cc(OCCN3CC(Cc4csc5nnc(-c6ccccc6O)cc45)C3)no2)C(C)C)cc1 [Compound 111, (2S,4R)-4-hydroxy-1-((R)-2-(3-(2-(3-((3-(2-hydroxyphenyl)thieno[2,3-c]pyridazin-5-yl)methyl)azetidin-1-yl)ethoxy)isoxazol-5-yl)-3-methylbutanoyl)-N-((S)-1-(4-(4-methylthiazol-5-yl)phenyl)ethyl)pyrrolidine-2-carboxamide] | C (“C” indicates maximum degradation < 50%) | ≥ 1000 nM | < 50% | ≥ 1000 nM |
| Cc1ncsc1-c1ccc([C@H](C)NC(=O)[C@@H]2C[C@@H](O)CN2C(=O)[C@@H](c2cc(N(C)CCN3CC(c4cc5nnc(-c6ccccc6O)cc5s4)C3)no2)C(C)C)cc1 [Compound 112, (2S,4R)-4-hydroxy-1-((R)-2-(3-((2-(3-(3-(2-hydroxyphenyl)thieno[3,2-c]pyridazin-6-yl)azetidin-1-yl)ethyl)(methyl)amino)isoxazol-5-yl)-3-methylbutanoyl)-N-((S)-1-(4-(4-methylthiazol-5-yl)phenyl)ethyl)pyrrolidine-2-carboxamide] | B (“B” indicates maximum degradation ≥ 50%) | ≥ 100 nM | < 50% | ≥ 1000 nM |
| Cc1ncsc1-c1ccc([C@H](C)NC(=O)[C@@H]2C[C@@H](O)CN2C(=O)[C@@H](c2cc(N3CCC(N4CC(c5sc6nnc(-c7ccccc7O)cc6c5C)C4)CC3)no2)C(C)C)cc1 [Compound 113, (2S,4R)-4-hydroxy-1-((R)-2-(3-(4-(3-(3-(2-hydroxyphenyl)-5-methylthieno[2,3-c]pyridazin-6-yl)azetidin-1-yl)piperidin-1-yl)isoxazol-5-yl)-3-methylbutanoyl)-N-((S)-1-(4-(4-methylthiazol-5-yl)phenyl)ethyl)pyrrolidine-2-carboxamide] | A (“A” indicates maximum degradation ≥ 75%) | < 10 nM | < 50% | ≥ 1000 nM |
